ChEMBL document CHEMBL3431459, “Roche carnitine palmitoyltransferase modulator screening data (supplementary data associated with the publication CHEMBL2216752)”
≈ marks a conversion by molar mass, not a printed value.

Tests used:
[1] = target: T1, Carnitine O-palmitoyltransferase 1, muscle isoform (Homo sapiens, UniProt Q92523); experiment: SUPPLEMENTARY: Inhibition of Carnitine palmitoyltransferase 1, muscle isoform; parameters: species or system Muscle tissue
T1 sequence (Q92523 whole entry): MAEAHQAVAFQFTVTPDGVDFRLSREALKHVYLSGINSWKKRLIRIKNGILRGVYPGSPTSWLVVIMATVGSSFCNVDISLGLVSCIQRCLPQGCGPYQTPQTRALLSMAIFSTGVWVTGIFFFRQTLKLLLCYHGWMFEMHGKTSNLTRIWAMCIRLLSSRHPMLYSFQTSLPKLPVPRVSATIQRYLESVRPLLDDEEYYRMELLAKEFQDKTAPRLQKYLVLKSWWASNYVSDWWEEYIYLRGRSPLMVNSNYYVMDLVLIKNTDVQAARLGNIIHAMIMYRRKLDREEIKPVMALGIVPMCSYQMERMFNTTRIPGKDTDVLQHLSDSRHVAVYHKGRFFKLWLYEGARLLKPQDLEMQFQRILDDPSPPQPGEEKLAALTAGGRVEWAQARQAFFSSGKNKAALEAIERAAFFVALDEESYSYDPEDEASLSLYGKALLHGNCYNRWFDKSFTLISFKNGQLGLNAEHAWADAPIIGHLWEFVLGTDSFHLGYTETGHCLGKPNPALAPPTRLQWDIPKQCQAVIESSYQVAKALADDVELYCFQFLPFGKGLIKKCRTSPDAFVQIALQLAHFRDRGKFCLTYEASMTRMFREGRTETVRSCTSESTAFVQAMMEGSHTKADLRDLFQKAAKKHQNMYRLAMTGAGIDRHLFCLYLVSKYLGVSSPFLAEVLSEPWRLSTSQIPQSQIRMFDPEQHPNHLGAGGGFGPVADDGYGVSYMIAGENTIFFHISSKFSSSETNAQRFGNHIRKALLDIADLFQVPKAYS

[2] = target: T2, Carnitine O-palmitoyltransferase 2, mitochondrial (Rattus norvegicus, UniProt P18886); experiment: (§1) SUPPLEMENTARY: Inhibition of Carnitine palmitoyltransferase 2
T2 sequence (P18886 whole entry): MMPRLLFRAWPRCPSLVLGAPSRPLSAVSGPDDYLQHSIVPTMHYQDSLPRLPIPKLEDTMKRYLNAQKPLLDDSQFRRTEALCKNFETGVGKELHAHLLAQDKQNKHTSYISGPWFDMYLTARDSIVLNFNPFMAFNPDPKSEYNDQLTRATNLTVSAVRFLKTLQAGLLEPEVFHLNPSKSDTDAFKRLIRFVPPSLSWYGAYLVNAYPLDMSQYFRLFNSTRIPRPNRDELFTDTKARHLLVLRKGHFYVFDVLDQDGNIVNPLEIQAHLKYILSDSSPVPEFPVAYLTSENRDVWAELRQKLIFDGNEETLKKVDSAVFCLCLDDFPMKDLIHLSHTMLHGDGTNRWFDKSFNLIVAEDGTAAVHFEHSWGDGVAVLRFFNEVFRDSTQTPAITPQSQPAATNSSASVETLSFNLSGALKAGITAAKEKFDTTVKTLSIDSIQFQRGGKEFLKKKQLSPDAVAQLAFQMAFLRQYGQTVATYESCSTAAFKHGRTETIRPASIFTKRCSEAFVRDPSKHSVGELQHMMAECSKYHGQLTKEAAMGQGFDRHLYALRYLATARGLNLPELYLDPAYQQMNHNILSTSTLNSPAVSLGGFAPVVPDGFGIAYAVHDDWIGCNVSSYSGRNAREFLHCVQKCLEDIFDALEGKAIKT

[3] = target: T3, Carnitine O-palmitoyltransferase 2, mitochondrial (Homo sapiens, UniProt P23786); experiment: as §1
T3 sequence (P23786 whole entry): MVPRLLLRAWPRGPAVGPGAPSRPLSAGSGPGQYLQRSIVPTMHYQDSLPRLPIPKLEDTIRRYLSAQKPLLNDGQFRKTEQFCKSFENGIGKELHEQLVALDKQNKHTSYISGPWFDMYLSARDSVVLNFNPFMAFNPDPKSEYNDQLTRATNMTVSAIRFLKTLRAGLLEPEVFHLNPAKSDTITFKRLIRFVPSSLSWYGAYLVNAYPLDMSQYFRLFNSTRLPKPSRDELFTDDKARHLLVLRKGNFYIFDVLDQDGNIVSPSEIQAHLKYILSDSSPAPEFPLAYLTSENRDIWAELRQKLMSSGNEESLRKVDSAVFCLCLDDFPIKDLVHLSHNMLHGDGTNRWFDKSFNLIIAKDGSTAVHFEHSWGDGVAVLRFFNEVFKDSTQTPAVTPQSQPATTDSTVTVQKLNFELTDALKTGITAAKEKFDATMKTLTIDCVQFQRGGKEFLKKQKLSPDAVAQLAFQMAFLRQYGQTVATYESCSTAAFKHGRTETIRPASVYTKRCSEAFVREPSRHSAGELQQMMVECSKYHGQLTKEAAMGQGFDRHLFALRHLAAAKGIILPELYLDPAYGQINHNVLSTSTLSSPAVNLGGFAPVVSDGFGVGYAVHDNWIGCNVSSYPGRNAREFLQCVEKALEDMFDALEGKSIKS

[4] = SUPPLEMENTARY: PAMPA permeability assay; type: physicochemical; conditions: read-out: Permeability
[5] = target: T4, Carnitine O-palmitoyltransferase 1, liver isoform (Rattus norvegicus, UniProt P32198); experiment: (§2) SUPPLEMENTARY: Inhibition of Carnitine palmitoyltransferase 1, liver isoform
T4 sequence (P32198 whole entry): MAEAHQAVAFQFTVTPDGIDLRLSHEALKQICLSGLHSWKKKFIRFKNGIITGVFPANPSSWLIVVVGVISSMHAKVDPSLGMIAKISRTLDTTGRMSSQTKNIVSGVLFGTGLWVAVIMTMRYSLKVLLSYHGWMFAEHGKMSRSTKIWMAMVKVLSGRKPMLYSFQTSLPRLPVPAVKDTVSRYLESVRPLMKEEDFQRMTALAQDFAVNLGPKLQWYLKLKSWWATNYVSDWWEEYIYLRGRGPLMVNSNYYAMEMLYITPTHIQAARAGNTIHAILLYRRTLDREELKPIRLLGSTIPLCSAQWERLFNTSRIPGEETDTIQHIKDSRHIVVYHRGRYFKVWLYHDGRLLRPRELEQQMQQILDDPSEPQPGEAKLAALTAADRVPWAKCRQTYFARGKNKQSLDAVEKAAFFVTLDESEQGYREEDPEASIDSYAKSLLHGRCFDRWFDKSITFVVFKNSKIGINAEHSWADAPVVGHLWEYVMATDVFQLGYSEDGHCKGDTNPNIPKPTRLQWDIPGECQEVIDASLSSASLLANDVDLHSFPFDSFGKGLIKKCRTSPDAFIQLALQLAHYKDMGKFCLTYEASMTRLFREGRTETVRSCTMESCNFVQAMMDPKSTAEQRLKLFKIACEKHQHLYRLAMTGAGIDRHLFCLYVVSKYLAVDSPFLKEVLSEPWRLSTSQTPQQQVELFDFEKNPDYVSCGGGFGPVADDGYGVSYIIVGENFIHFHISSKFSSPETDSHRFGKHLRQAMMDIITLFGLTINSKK

[6] = target: T5, Carnitine O-palmitoyltransferase 1, liver isoform (Homo sapiens, UniProt P50416); experiment: as §2
T5 sequence (P50416 whole entry): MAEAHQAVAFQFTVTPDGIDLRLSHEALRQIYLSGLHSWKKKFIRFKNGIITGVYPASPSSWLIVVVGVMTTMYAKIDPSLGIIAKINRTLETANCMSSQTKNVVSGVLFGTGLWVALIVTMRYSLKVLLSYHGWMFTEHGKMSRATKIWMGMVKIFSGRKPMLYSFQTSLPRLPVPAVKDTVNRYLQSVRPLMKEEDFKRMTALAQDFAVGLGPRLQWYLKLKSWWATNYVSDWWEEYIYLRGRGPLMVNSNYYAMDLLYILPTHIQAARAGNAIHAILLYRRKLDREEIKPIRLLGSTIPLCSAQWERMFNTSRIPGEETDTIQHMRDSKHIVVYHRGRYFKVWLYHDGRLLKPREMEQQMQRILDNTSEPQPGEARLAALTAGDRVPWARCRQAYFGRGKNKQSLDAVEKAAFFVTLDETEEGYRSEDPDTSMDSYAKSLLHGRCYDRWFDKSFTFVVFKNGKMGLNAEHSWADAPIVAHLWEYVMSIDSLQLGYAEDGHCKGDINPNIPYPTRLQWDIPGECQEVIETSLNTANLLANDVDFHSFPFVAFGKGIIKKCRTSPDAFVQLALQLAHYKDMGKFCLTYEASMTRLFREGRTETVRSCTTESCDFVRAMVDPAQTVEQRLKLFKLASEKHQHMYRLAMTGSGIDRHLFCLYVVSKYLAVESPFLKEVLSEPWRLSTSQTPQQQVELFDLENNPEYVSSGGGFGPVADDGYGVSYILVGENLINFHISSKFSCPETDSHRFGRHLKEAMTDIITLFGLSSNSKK

[7] = SUPPLEMENTARY: Lyophilisation Solubility Assay (LYSA); type: physicochemical; conditions: read-out: Kinetic_solubility
[8] = SUPPLEMENTARY: Lipophilicity (log D) Determination by high-throughput shake-flask; type: physicochemical; conditions: octanol/water

SMILES	IC50 [1] [µM]	IC50 [2] [µM]	IC50 [3] [µM]	Papp [4] [×10⁻⁶ cm/s]	IC50 [5] [nM]	IC50 [6] [nM]	solubility kinetic [7] [µg/mL]	logD [8]
Cc1cc(C)cc(S(=O)(=O)n2ccc3ccc(C(=O)Nc4ccc(CC(=O)O)cc4)cc32)c1	0.95	> 100	> 100	1.89	151	152	6 (≈ 13 µM)	–
COc1ccc(Cl)cc1Cc1cn(C)c2ccc(C(=O)Nc3ccc(C(=O)O)cc3)cc12	2.33	9.31	1.35	0.47	102	39.9	23 (≈ 51.2 µM)	–
O=C(Cn1cc(-c2ccccc2)c2ccccc21)Nc1ccc(C(=O)O)cc1	0.512	> 100	15.4	1.73	1390	474	19 (≈ 51.3 µM)	–
COc1ccc(Cl)cc1Cn1ccc2ccc(C(=O)Nc3nc(CC(=O)O)cs3)cc21	24.2	> 100	> 100	1.14	90.5	170	13 (≈ 28.5 µM)	–
COc1ccc(Cl)cc1S(=O)(=O)c1nn(C)c2ccc(C(=O)Nc3ccc(C(=O)O)cc3)cc12	> 100	> 100	> 100	1.89	64.8	50	8 (≈ 16 µM)	–
COc1ccc(Cl)cc1-c1csc([C@H]2CCCCN2C(=O)COc2ccccc2)n1	> 100	> 100	> 100	–	761	–	< 1	> 4
COc1ccc(Cl)cc1CN1C(=O)C2(CC2)c2ccc(C(=O)Nc3ccc(C(=O)O)cc3)cc21	11	19.6	1.27	1.24	148	123	13 (≈ 27.3 µM)	–
COc1ccc(Cl)cc1S(=O)(=O)c1c[nH]c2ccc(C(=O)Nc3ccccc3)cc12	> 100	> 100	> 100	0.06	83.8	114	1 (≈ 2.27 µM)	–
COc1ccc(Cl)cc1S(=O)(=O)c1cn(CC(N)=O)c2ccc(C(=O)Nc3ccccc3)cc12	> 100	> 100	> 100	0.3	17.1	12.8	2 (≈ 4.02 µM)	–
COc1ccc(Cl)cc1S(=O)(=O)N1CCc2c(C)cc(C(=O)Nc3nc(CC(=O)O)cs3)cc21	> 100	> 100	> 100	2.03	12	19.3	249 (≈ 477 µM)	–
COc1ccc(Cl)cc1S(=O)(=O)c1nn(CCC(=O)O)c2ccc(C(=O)Nc3ccccc3)cc12	49.4	> 100	> 100	0.67	6.6	14.7	25 (≈ 48.6 µM)	–
Cc1cc(C)cc(S(=O)(=O)c2nn(CC(=O)O)c3ccc(C(=O)Nc4ccccc4)cc23)c1	8.83	> 100	> 100	0.01	21.7	33.7	71 (≈ 153 µM)	–
